The text below walks through data of patent US20240423973A1, “COMPOUNDS, PHARMACEUTICAL COMPOSITIONS, AND METHODS FOR THE TREATMENT, PREVENTION, OR MANAGEMENT OF HYPERPROLIFERATIVE DISORDERS” (VINCERX PHARMA GMBH, priority 2021, published 2024).

One assay deals with 786-O. Put plainly: Cytotoxicity in vitro in the presence and absence of elastase (MTT assay). The settings on record: 786-O cells, 72 h. Format: cell-based, human. In short, it runs like this: (§1)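 Cells were seeded, left 24 h at 37 °C/5% CO2, then treated in triplicate with compound (10^−5 to 10^−13 M), alone or with 10 nM elastase, for 72 h. MTT was added for 4 h, cells were lysed overnight with detergent, and absorbance was read at 570 nm relative to untreated cells.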
A general note: Tetrazolium dyes change colour on reduction, which living cells bring about.

The next assay relates to HT29. Described as above. Format: cell-based, human. The note with it: HT29 cells, 72 h. Summed up:
as §1

In another assay the test system is NCI H292. Described as above. Format: cell-based, human. The note with it: NCI H292 cells, 72 h. Summed up: as §1
In another assay the test system is SUM149. The description is as above. The note with it: SUM149 cells, 72 h. In kind it is cell-based. Summed up: as §1
The subject of another assay is avb3. Put plainly: EC50 [nM]. The text has this: Table printed on a drawing sheet, FIG. 4
Head of the field: EC50 [nM]
The patent's description of the figure: FIG. 4: avb3 binding of selected examples and EC50 values
First copying reader's note: EC50 values relate to the αvβ3 binding assay plotted next to the table; R^2 is the goodness of fit of the curve.
Where the first naming reader finds the target: description_of_the_figure: FIG. 4: avb3 binding of selected examples and EC50 values

As usually defined, the IC50 is the point on the concentration scale where inhibition reaches its midpoint. High values mean weaker potency, low ones greater potency. A word on the EC50: it is the concentration that produces a half-maximal response. Read a high EC50 as lower potency in that assay.

On to `CCCNC(=O)Nc1cccc(S(=O)(=O)Nc2cccc([C@@H](CC(=O)O)NC(=O)Nc3ccc(NC(=O)NCCC(=O)NCCCC[C@H](NC(=O)CCNC(=O)Nc4ccc(NC(=O)N[C@H](CC(=O)O)c5cccc(NS(=O)(=O)c6cccc(NC(=O)NCCC)c6)c5)cc4)C(=O)NCCOCCOCCOCCC(=O)N[C@@H](CC(=O)O)C(=O)N4CCC[C@H]4C(=O)N[C@H](C(=O)O[C@]4(CC)C(=O)OCc5c4cc4n(c5=O)Cc5c-4nc4ccccc4c5CC)C(C)C)cc3)c2)c1` [Compound A2], for which the IC50 with 786-O (compound alone (no elastase)) was 10 to 100 nM; in the assay on 786-O (with 10 nM elastase), 0.01 to 0.1 nM; in the assay with HT29 (compound alone (no elastase)), greater than 100 nM; in the assay with HT29 (with 10 nM elastase), 0.01 to 0.1 nM; in the assay on NCI H292 (compound alone (no elastase)) it was 10 to 100 nM; in the assay on NCI H292 (with 10 nM elastase) it was 0.01 to 0.1 nM. In addition, the results for the IC50 with SUM149 (compound alone (no elastase)) and in the assay with SUM149 (with 10 nM elastase) were 10 to 100 nM and 0.01 to 0.1 nM, respectively. This compound also returned an EC50 in the assay with avb3 of 97 nM.
